Molecules are shown by their SMILES.

One assay has as its target T1, EP300 (h) bromodomain (Homo sapiens, UniProt Q09472).
T1 construct: Bromodomain
T1 sequence (Q09472 1049-1156 limits assumed): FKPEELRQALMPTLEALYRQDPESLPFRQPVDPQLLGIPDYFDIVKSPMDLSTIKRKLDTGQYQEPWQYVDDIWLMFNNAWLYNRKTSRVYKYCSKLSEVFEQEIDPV
Briefly: Epigenetic binding assay, Bromodomain. Particulars: for inhibition at 10 µM: read-out: % Inhibition of Control Specific Binding.

Assay [1] concerns the target MSK1(h) (substrate histone H3 full length) (Homo sapiens, UniProt O75582). As to the kind of experiment: Epigenetic enzyme assay, Kinases. Type of assay: biochemical. The following applies: read-out: % Inhibition of Control Values.
Assay [2] has as its target T2, sirtuin 3 (h) (inhibitor effect) (Homo sapiens, UniProt Q9NTG7).
T2 sequence (Q9NTG7 1-399): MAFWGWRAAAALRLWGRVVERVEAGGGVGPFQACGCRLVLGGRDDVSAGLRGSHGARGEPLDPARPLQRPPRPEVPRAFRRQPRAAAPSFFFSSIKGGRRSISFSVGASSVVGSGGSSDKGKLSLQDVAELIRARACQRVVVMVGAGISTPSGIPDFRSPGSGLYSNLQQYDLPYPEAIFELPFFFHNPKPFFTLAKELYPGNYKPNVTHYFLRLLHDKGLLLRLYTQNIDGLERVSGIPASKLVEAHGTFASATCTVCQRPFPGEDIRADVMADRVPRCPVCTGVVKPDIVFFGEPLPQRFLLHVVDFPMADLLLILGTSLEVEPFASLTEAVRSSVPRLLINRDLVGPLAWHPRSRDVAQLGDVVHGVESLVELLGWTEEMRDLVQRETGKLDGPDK
As to the kind of experiment: Epigenetic enzyme assay, Sirtuins. Type of assay: biochemical. The following applies: read-out: % Inhibition of Control Values.

The target in the next assay is T3, BRD2(2) (h) bromodomain (Homo sapiens, UniProt P25440).
T3 construct: Bromodomain
As to the kind of experiment: Epigenetic binding assay, Bromodomain. Particulars: read-out: % Inhibition of Control Specific Binding.

The test system of a further assay is Hs 852.T. As to the kind of experiment: OncoPanel cell proliferation assay (10-day). Format: cell-based, human. Particulars: for EC50 / GI50 / IC50: Homo sapiens, Skin (Melanoma); for EC50: read-out: Cell Count EC50; for GI50: read-out: Cell Count GI50; for IC50: read-out: Cell Count IC50.
The target in the next assay is PRMT5 complex (h) (Homo sapiens, UniProt O14744). As to the kind of experiment: Epigenetic enzyme assay, Methyltransferases (MTs). Format: biochemical. The following applies: read-out: % Inhibition of Control Values.
In the next assay the target is T4, SP140 (h) bromodomain (Homo sapiens, UniProt Q13342).
T4 construct: SP140 (h) bromodomain
Briefly: Epigenetic binding assay, Bromodomain. Also noted: inhibition of binding, 1st / inhibition of binding, 2nd / inhibition of binding, Mean: unit: %. The following applies: for inhibition at 10 µM: read-out: % Inhibition of Control Specific Binding.

Another assay deals with T5, WHSC1(h) (NSD2(h)) (Homo sapiens, UniProt O96028).
T5 sequence (O96028 1-1365): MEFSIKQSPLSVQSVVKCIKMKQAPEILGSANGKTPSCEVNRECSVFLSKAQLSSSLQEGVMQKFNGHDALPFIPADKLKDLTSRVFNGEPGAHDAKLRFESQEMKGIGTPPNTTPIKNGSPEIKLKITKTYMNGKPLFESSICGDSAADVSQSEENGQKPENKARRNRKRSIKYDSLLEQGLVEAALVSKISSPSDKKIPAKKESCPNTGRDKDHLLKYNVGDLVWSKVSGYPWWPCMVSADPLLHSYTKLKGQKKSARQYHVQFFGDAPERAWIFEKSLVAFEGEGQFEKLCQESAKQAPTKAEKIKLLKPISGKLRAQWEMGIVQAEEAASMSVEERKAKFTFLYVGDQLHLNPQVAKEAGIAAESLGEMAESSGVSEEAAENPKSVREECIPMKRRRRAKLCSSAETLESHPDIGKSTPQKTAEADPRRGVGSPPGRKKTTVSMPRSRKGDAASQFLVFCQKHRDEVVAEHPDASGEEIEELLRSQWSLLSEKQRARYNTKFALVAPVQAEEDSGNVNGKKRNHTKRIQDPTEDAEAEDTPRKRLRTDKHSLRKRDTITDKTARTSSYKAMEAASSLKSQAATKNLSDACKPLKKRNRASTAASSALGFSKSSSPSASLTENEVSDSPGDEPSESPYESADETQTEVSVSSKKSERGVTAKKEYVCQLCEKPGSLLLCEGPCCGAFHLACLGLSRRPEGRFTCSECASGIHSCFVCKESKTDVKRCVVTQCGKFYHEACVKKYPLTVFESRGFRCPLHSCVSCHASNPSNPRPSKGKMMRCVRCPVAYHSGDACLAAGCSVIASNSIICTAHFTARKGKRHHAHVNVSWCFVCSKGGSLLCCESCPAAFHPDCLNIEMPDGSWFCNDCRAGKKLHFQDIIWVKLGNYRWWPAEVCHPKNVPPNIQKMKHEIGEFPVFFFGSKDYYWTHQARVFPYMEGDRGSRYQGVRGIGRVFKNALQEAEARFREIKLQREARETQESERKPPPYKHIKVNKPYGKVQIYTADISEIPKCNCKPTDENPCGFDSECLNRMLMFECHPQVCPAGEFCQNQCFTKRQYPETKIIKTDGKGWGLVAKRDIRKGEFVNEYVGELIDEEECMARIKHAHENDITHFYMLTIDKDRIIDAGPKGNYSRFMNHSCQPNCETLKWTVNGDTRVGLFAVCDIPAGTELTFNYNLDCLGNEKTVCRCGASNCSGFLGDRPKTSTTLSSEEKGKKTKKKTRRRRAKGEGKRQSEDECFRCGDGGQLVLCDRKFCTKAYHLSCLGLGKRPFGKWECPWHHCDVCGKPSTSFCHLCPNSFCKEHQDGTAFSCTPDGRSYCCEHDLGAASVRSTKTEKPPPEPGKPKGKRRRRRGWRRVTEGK
As to the kind of experiment: Epigenetic enzyme assay, Methyltransferases (MTs). Format: biochemical. The following applies: 10 μM; read-out: % Inhibition of Control Values.

Another assay addresses T6, PB1(4) (h) bromodomain (Homo sapiens, UniProt Q86U86).
T6 construct: Bromodomain
As to the kind of experiment: Epigenetic binding assay, Bromodomain. The following applies: 10 μM; read-out: % Inhibition of Control Specific Binding.

T4 sequence (Q13342 754-857 limits assumed): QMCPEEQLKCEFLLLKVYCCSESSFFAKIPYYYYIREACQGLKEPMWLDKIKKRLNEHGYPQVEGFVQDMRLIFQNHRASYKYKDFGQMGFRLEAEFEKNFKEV
Sequence of MSK1(h) (substrate histone H3 full length) (O75582 whole entry): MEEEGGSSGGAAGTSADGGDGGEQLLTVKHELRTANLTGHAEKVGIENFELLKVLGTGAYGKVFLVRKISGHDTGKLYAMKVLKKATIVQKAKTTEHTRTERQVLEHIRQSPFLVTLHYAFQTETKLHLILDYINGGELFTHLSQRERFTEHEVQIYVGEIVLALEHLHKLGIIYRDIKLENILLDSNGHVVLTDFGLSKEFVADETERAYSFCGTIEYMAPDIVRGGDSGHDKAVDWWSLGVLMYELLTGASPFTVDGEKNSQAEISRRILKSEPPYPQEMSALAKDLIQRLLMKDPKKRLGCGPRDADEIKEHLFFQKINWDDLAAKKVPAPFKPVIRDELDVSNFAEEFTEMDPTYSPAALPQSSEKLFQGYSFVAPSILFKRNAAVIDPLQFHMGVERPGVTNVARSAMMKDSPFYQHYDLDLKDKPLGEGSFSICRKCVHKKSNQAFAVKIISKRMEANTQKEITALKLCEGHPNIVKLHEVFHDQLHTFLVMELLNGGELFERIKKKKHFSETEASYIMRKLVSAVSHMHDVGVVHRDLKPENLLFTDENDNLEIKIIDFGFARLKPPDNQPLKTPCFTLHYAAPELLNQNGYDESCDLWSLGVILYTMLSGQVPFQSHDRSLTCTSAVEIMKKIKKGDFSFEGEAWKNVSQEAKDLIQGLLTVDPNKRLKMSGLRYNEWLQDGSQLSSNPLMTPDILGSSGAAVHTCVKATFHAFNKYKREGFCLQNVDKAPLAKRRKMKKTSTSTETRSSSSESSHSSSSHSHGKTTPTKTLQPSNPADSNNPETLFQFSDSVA
Sequence of PRMT5 complex (h) (O14744 whole entry): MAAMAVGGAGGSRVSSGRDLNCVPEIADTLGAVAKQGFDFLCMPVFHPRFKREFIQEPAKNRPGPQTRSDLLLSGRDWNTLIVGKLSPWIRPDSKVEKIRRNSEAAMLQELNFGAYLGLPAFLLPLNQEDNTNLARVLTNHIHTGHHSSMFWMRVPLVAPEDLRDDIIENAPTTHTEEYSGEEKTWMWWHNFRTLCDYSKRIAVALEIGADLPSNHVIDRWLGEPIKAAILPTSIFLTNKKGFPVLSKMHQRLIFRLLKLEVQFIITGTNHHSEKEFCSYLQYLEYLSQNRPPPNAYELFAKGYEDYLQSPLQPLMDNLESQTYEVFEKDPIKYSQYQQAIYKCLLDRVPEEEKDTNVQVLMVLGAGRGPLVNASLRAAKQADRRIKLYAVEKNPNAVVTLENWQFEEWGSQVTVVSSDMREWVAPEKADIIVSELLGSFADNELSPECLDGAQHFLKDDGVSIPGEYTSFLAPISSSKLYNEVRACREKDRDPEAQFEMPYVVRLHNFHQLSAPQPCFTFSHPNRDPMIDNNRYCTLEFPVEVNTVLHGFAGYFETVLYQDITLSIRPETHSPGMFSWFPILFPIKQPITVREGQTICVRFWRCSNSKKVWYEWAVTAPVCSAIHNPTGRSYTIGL
Sequence of PRMT5 complex (h) (Q9BQA1 whole entry partner): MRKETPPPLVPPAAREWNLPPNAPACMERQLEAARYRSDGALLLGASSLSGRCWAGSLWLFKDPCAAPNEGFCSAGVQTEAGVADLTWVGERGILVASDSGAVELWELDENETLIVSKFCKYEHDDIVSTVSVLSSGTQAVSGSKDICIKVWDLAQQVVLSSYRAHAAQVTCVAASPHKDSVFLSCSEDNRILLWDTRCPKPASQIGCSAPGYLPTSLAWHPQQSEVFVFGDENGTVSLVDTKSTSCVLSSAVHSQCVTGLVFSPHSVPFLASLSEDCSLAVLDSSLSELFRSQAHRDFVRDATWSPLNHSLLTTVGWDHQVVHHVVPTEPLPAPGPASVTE
T6 sequence (Q86U86 518-625 limits assumed): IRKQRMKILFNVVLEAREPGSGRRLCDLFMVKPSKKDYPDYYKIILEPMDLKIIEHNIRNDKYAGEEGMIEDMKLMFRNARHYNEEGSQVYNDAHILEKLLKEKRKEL
T3 sequence (P25440 344-453 limits assumed): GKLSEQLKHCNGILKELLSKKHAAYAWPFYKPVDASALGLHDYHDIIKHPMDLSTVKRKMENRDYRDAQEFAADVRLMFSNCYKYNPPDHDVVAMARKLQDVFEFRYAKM

Take `CC(C)=CCC[C@@H]1C(O)Oc2c(C)cc(O)c3c2[C@H]1CC[C@H]3C` (some centres unmarked) [Compound 2, 5,18-epoxyserrulat-14-en-8,18-diol]: the inhibition – broadly, the change of the read-out against control, counted positive when it falls – at 10 µM was 37% at EP300 (h) bromodomain (10 μM); 2% in assay [1]; -8% in [2]; 22% at BRD2(2) (h) bromodomain; -8% on PRMT5 complex (h); 43% at SP140 (h) bromodomain (10 μM). Also, the inhibition at 10 µM on WHSC1(h) (NSD2(h)) was 14%; at PB1(4) (h) bromodomain, -3%. Further, the EC50 (as a rule, the midpoint of the concentration-response curve) in the assay with Hs 852.T worked out at 15.4 µM. The GI50 (commonly the concentration at which growth is held to half of that of the control) in the assay on Hs 852.T is 14.7 µM. The concentration for half-maximal inhibition (IC50) (commonly the midpoint of a concentration-inhibition curve) in the assay on Hs 852.T was found to be 15.4 µM.
As for `CC(C)=CCC[C@@H]1COc2c(C)cc(O)c3c2[C@H]1CC[C@H]3C` [Compound 3, 5,18-epoxy-8-hydroxyserrulat-14-ene], the inhibition at 10 µM on EP300 (h) bromodomain (10 μM) is 40%; in [1] it was 10%; in assay [2], -3%; on BRD2(2) (h) bromodomain, 18%; at PRMT5 complex (h), 9%; on SP140 (h) bromodomain (10 μM), 1%. For the same compound, the inhibition at 10 µM stood at 7% on WHSC1(h) (NSD2(h)) and 16% at PB1(4) (h) bromodomain.
Regarding `CC(C)=CCC[C@H](CO)[C@@H]1CC[C@@H](C)c2c1cc(C)c(O)c2O` [Compound 1, 7,8,18-trihydroxyserrulat-14-ene], the “% Inhibition of Control Specific Binding” value on EP300 (h) bromodomain (10 μM) and on SP140 (h) bromodomain (10 μM) was “significant inhibitory activity” each time. In addition, the inhibition at 10 µM at EP300 (h) bromodomain (10 μM) was 89%; in assay [1], 6%; in assay [2], -14%; on BRD2(2) (h) bromodomain, 58%; on PRMT5 complex (h), 8%; at SP140 (h) bromodomain (10 μM), 84%. In addition, the inhibition at 10 µM stood at 3% on WHSC1(h) (NSD2(h)) and 41% at PB1(4) (h) bromodomain. Moreover, the IC50 was 4.5 µM at EP300 (h) bromodomain (Table 9, inhibition/concentration-response curve); 2.56 µM in the assay on Hs 852.T; 3.8 µM at SP140 (h) bromodomain (Table 9, inhibition/concentration-response curve, read-out: IC50). Further, the “Relative cell count (%) Mean” value with Hs 852.T (3.00E+00 microM) is recorded as 41.6%; in the assay on Hs 852.T (3.00E+01 microM) it was 2.7%; in the assay on Hs 852.T (3.01E−01 microM), 95.3%; with Hs 852.T (3.01E−02 microM), 94.5%; in the assay with Hs 852.T (3.02E−03 microM), 104.5%; with Hs 852.T (9.49E+00 microM) it was 13.1%. Besides, the “Relative cell count (%) Mean” value in the assay with Hs 852.T (9.51E−01 microM) worked out at 85.5%; with Hs 852.T (9.52E−02 microM) it was 92.2%; in the assay on Hs 852.T (9.53E−03 microM), 100.2%; in the assay with Hs 852.T (9.55E−04 microM) it was 104.3%. Moreover, in the assay with Hs 852.T, the EC50 worked out at 2.49 µM. In the assay with Hs 852.T, the GI50 stood at 2.42 µM. The “inhibition of binding, 1st” value on SP140 (h) bromodomain (3.0E−05M) is 102.3; at SP140 (h) bromodomain (3.0E−06M), 8.4; on SP140 (h) bromodomain (3.0E−07M), −14.1; on SP140 (h) bromodomain (3.0E−08M), −9.7; on SP140 (h) bromodomain (3.0E−09M), −6.0. The “inhibition of binding, 2nd” value on SP140 (h) bromodomain (3.0E−05M) was 102.3; at SP140 (h) bromodomain (3.0E−06M), 11.3; on SP140 (h) bromodomain (3.0E−07M), −11.0; at SP140 (h) bromodomain (3.0E−08M), −14.6; at SP140 (h) bromodomain (3.0E−09M), −8.6. Besides, the “inhibition of binding, Mean” value on SP140 (h) bromodomain (3.0E−05M) is recorded as 102.3; at SP140 (h) bromodomain (3.0E−06M), 9.9; at SP140 (h) bromodomain (3.0E−07M), −12.6; at SP140 (h) bromodomain (3.0E−08M), −12.1; at SP140 (h) bromodomain (3.0E−09M) it was −7.3.
With `CC(C)=CCC[C@H](C)[C@@H]1CC[C@@H](C)c2c1cc(C)c(O)c2O` [Compound 4, 7,8-dihydroxyserrulat-14-ene], in the assay with Hs 852.T, the EC50 was 12 µM, the GI50 was 11.6 µM and the IC50 worked out at 12 µM.

(Values after patent US11331299B2, “Medicinal use of serrulatane diterpenes” (The University of Sydney, priority 2016, dated 2022).)
